pEC50: −log10 of the molar value.
What was measured:
[1] = Messer et al. 2002; cited from earlier work
M1 receptors = target: T1, M1 receptors (Homo sapiens, UniProt P11229); assay: PI metabolism in A9 L cells expressing M1 receptors; type: cell-based; conditions: M1 receptors expressed in A9 L cells
T1 construct: expressed in transfected cells; host or cells: A9 L cells
T1 sequence (P11229 1-460): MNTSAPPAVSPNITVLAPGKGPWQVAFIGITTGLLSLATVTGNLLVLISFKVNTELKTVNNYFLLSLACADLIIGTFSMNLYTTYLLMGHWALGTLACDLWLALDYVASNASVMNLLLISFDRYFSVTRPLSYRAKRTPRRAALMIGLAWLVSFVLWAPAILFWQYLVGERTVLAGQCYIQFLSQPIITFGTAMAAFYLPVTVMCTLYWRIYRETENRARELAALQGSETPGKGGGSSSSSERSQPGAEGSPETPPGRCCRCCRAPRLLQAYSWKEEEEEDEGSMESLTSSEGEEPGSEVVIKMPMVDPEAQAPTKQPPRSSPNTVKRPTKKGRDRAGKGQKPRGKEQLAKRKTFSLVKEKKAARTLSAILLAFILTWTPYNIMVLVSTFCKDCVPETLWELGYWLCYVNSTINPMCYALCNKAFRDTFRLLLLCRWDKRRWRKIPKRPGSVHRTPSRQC
Protocol: (§1) The observed functional selectivity of CDD-0102A is unique among compounds purported to be selective M1 agonists. […] The lack of selectivity likely contributes to the high incidence of adverse effects observed when the compounds are administered to humans. To assess selectivity for muscarinic receptors, the ability of CDD-0102A to activate responses was compared with the nonselective, full agonist carbachol at each muscarinic receptor subtype. In cultured cell lines expressing individual muscarinic receptor subtypes, phosphoinositide (PI) metabolism studies assessed activity at M1, M3 and M5 receptors, while measures of cAMP levels examined M2 and M4 receptor activity. […] CDD-0102 was not active when M5 receptors were expressed at low levels in A9 L cells. […] Thus, CDD-0102 is a functionally-selective M1 agonist with weaker activity at M5 receptors, very weak activity at M3 receptor and no activity at M2 or M4 receptors.

M2 receptors = target: T2, M2 receptors (Homo sapiens, UniProt P08172); assay: Inhibition of adenylyl cyclase activity (cAMP levels) in A9 L cells expressing M2 receptors; type: cell-based
T2 construct: expressed in transfected cells; host or cells: A9 L cells
T2 sequence (P08172 1-466): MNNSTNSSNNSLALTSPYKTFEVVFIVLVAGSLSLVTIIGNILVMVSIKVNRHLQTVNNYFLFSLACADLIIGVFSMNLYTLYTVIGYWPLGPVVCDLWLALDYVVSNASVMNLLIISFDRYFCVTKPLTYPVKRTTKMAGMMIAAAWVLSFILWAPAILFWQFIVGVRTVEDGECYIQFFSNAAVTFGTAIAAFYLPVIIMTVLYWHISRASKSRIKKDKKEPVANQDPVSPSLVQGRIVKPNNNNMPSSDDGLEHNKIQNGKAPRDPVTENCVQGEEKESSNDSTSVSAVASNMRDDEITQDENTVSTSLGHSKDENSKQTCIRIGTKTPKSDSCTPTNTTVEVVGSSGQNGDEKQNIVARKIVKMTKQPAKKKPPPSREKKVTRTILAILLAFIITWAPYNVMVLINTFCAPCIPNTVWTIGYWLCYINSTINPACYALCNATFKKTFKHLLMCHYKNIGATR
Protocol: as §1

M5 receptors = target: T3, M5 receptors (Homo sapiens, UniProt P08912); assay: PI metabolism in A9 L cells expressing M5 receptors; type: cell-based
T3 construct: expressed in transfected cells; host or cells: A9 L cells
T3 sequence (P08912 1-532): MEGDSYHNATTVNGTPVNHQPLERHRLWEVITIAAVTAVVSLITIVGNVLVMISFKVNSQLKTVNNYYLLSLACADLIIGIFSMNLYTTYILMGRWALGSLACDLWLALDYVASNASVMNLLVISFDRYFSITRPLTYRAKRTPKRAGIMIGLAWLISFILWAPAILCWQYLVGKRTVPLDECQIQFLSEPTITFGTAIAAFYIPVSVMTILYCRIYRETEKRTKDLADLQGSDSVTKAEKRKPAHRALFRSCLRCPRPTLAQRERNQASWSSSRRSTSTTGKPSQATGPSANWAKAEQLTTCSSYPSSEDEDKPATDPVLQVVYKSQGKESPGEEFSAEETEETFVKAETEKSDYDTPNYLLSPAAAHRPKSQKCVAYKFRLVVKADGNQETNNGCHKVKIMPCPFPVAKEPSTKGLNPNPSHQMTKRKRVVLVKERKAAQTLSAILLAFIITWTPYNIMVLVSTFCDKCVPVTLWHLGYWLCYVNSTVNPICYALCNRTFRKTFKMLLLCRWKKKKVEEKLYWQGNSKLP
Protocol: as §1

M3 receptors = target: T4, M3 receptors (Homo sapiens, UniProt P20309); assay: PI metabolism in A9 L cells expressing M3 receptors; type: cell-based; conditions: M3 receptors expressed in A9 L cells
T4 construct: expressed in transfected cells; host or cells: A9 L cells
Protocol: as §1

M4 receptors = target: T5, M4 receptors (Homo sapiens, UniProt P08173); assay: Inhibition of adenylyl cyclase activity (cAMP levels) in CHO cells expressing M4 receptors; type: cell-based
T5 construct: expressed in transfected cells; host or cells: CHO cells
T5 sequence (P08173 1-479): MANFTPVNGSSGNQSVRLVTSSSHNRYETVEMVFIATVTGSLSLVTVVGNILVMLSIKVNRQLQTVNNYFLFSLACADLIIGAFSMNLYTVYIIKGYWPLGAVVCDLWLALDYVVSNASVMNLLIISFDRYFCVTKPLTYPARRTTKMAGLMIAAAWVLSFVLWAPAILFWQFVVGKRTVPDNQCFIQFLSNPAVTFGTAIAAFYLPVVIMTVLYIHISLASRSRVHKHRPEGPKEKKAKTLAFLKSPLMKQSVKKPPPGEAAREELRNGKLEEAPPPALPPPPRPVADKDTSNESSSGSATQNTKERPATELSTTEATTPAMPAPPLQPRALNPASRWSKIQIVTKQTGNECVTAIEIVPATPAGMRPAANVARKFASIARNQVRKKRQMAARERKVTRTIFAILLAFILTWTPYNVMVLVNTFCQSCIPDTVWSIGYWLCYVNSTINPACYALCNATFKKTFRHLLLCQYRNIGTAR
Protocol: as §1

[2] = test system: rats with impaired cholinergic function; conditions: Messer et al. 2002; cited from earlier work
[3] = read-out: EC50, stimulation of PI metabolism

T4 sequence (P20309 whole entry): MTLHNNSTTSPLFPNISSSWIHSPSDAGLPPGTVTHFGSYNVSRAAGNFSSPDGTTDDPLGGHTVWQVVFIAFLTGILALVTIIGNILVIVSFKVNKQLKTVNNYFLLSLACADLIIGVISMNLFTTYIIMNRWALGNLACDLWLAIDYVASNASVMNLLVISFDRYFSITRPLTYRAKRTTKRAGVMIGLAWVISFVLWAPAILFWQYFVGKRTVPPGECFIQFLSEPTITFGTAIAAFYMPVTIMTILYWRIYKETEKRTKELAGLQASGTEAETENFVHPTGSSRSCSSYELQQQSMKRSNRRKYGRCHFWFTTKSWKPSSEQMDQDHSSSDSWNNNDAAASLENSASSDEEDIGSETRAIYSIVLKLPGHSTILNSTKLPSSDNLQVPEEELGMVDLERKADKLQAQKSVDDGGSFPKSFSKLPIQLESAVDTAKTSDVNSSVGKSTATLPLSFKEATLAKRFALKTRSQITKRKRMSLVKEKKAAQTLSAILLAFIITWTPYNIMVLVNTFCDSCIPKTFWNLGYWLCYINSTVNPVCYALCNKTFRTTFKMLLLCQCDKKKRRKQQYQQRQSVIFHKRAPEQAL

CCc1noc(C2CN=CNC2)n1 (centres unmarked) [CDD-0102, 5-(3-ethyl-1,2,4-oxadiazol-5-yl)-1,4,5,6-tetrahydropyrimidine]
Side effect profile in vivo [1]: low side effect profile
pEC50 (M1 receptors; [3]): 4.89
PI metabolism, % of the carbachol response (M1 receptors; relative to full agonist carbachol): 46%
Inhibition of adenylyl cyclase activity (M2 receptors): inactive
Activity in PI metabolism (M5 receptors; M5 receptors expressed at low levels in A9 L cells): not active
pEC50 (M5 receptors; higher levels of M5 receptor expression in A9 L cells, read-out: EC50, stimulation of PI metabolism): 5.12
PI metabolism, % of the carbachol response (M5 receptors; higher levels of M5 receptor expression in A9 L cells, relative to carbachol): 28%
pEC50 (M3 receptors; [3]): 5.00
PI metabolism, % of the carbachol response (M3 receptors; relative to carbachol): 6.6%
Inhibition of adenylyl cyclase activity (M4 receptors): inactive
Memory deficits [2]: reverses memory deficits
